Laboratory results reported in US10772856B2, “Compositions and methods of use of beta-hydroxy-beta-methylbutyrate (HMB) for decreasing fat mass” (Metabolic Technologies, Inc., priority 2015, dated 2020).
Values belong to the compound of their own block, whether it stands above or below them.

Key:
OP9 adipocytes = experiment: Basal and isoproterenol stimulated lipolysis in differentiated OP9 adipocytes; type: cell-based
Protocol: As noted above, an increase in expression of ATGL in cells treated with HMB was observed, so the effect of HMB treatment on basal and isoproterenol stimulated lipolysis was determined directly in cultured adipocytes. The protocol of Viswanadha and Londos was used for optimization of conditions for measuring lipolysis in murine primary adipoctyes (J. Lipid Res. 2006. 47: 1859-1864) that include treatment with adenosine deaminase (ADA) to remove endogenous adenosine and then addition of ADA resistant PIA (phenylisopropyl-adenosine).
The following treatment strategies were tested: HMB doses of 0.1, 1 and 6 mM; 2 concentrations of the beta-adrenergic agonist isoproterenol 0.1 and 1 uM, and short term (immediately before lipolysis assay) vs. long term (48 h) HMB treatment (n=4 per treatment). Op9 adipocytes were used as SGBS cells take a long time (several weeks) to differentiate making them inconvenient to use.
Cells were pre-treated with varying concentrations of HMB in OP9 growth medium for 48 hrs. Following pre-treatment, cells were washed and incubated with Isoproterenol (0.1 or 1.0 uM) in lipolysis buffer: Krebs ringer bicarbonate (KRB) with 4% BSA. The medium also contained adenosine deaminase (ADA) and phenyl-isopropyl-adenosine (PIA) for 2 hrs at 37° C. ADA was added to remove endogenous adenosine and PIA, which is resistant to ADA, was used to have low standardized basal lipolysis. Following treatment, media was assayed for glycerol content and cells were lysed with RIPA buffer to determine protein concentration, *p<0.05, ** p<0.01. N=4.

[1] = after administration; cited from earlier work
skeletal muscle = details: acute ingestion of 2.4 grams; cited from earlier work
[2] = tested on: Differentiated human adipocytes (SGBS); experiment: Phosphokinase protein array of SGBS adipocytes; type: cell-based; details: 1 mM HMB, 4 days, vs untreated cells
Protocol: This approach was used to determine in non-biased way changes in protein phosphorylation that are known to influence activity of important signaling proteins. Differentiated human adipocytes were treated for 4 days with or without HMB (1 mM). Shown are only the significant increases above untreated cells in phosphorylation of the listed protein at the indicated phosphorylation site(s).

[3] = tested on: SGBS human pre-adipocytes differentiated into adipocytes; experiment: Microarray (mRNA) pathway analysis in differentiated SGBS adipocytes; type: cell-based; details: 1 mM HMB for 4 days
Protocol: (§1) Methods. Murine 3T3-F442A preadipocytes were grown until confluence. After confluence, 3T3-F442A cells were allowed to differentiate into adipocytes and become filled with triglycerides. Lipolysis was assessed as glycerol release from 3T3-F442A adipocytes in well plates. Adipocyte monolayers were incubated with Krebs-Ringer buffer containing Hepes (KRH), supplemented with 2% fatty acid-free BSA, 5 mM glucose, ADA and PIA. In addition, cells were treated with β-hydroxy-β-methylbutyrate (HMB) at either 0 (control), 0.1, 1, or 6 mM concentrations. Cells were incubated in the absence (Basal) or in the presence of 0.1 μM isoproterenol for 1 hour. Aliquots of the incubation medium were removed and frozen until glycerol determination. Glycerol was measured by a commercial enzymatic method. Data were presented as the fold increase over control. Results. […] Lipolysis in Human Subcutaneous Adipocytes Methods. Human subcutaneous adipocytes were obtained from donors and incubated in vitro. Lipolysis was assessed as glycerol release in well plates. Adipocyte were incubated with Krebs-Ringer buffer containing Hepes (KRH), supplemented with 4% fatty acid-free BSA, 5 mM glucose, ADA and PIA. […] Glycerol was measured by a commercial enzymatic method. […] Similarly, cytokine receptor interaction and calcium signaling pathways are also elevated as measured by mRNAs.

3T3-F442A adipocytes = experiment: Lipolysis (glycerol release) in 3T3-F442A adipocytes; type: cell-based, Murine; details: 1 hour
Protocol: Methods. Murine 3T3-F442A preadipocytes were grown until confluence. After confluence, 3T3-F442A cells were allowed to differentiate into adipocytes and become filled with triglycerides. Lipolysis was assessed as glycerol release from 3T3-F442A adipocytes in well plates. Adipocyte monolayers were incubated with Krebs-Ringer buffer containing Hepes (KRH), supplemented with 2% fatty acid-free BSA, 5 mM glucose, ADA and PIA. In addition, cells were treated with β-hydroxy-β-methylbutyrate (HMB) at either 0 (control), 0.1, 1, or 6 mM concentrations. Cells were incubated in the absence (Basal) or in the presence of 0.1 μM isoproterenol for 1 hour. Aliquots of the incubation medium were removed and frozen until glycerol determination. Glycerol was measured by a commercial enzymatic method. Data were presented as the fold increase over control. Results. […] Lipolysis in Human Subcutaneous Adipocytes Methods. Human subcutaneous adipocytes were obtained from donors and incubated in vitro. Lipolysis was assessed as glycerol release in well plates. Adipocyte were incubated with Krebs-Ringer buffer containing Hepes (KRH), supplemented with 4% fatty acid-free BSA, 5 mM glucose, ADA and PIA. In addition, cells were treated with β-hydroxy-β-methylbutyrate (HMB) at either 0 (control), 0.1, or 1 mM concentrations in the presence of 1.0 μM isoproterenol for 2 hours. Aliquots of the incubation medium were removed and frozen until glycerol determination. Glycerol was measured by a commercial enzymatic method. Data were presented as the fold increase over control. Results. […] Effect of HMB on Gene Expression in Differentiated Adipocytes SGBS human pre-adipocytes were differentiated into adipocytes and treated with 1 mM HMB for 4 days. The human Simpson-Golabi-Behmel syndrome (SGBS) preadipocyte cell strain cells originate from an adipose tissue specimen of a patient with GSBS. Microarrays (mRNAs) were performed. […] Similarly, cytokine receptor interaction and calcium signaling pathways are also elevated as measured by mRNAs.

[4] = tested on: Differentiated adipocytes; experiment: Gene expression by qPCR in differentiated adipocytes; type: cell-based; details: 1 mM HMB, 4 days
Protocol: Differentiated adipocytes were incubated for 4 days with 1 mM of HMB. RNA was extracted and gene expression was determined by qPCR. Gene expression for ATGL, ACOX, PGC1a, ATG7 and BNIP3 were analyzed. […] ATGL is highly expressed in adipose tissue of humans and mice. ACOX1, or acyl-CoA oxidase 1 is the first enzyme involved in peroxisomal fatty acid oxidation. This occurs when the fatty acid chains are too long to be handled by the mitochondria. The high-potential electrons generated are transferred to O2→H2O2 (+heat) which in the presence of catalase→H2O and O2. PGC1α is a key regulator of energy metabolism and is found to be very important in the development of brown adipose tissue which is the high energy yielding adipose tissue. Autophagy-related protein 7 (ATG7) regulates fat mass. Knocking ATG7 down will result in abnormal non-functional adipose tissue. Elevated levels increase tissue recycling. BNIP3 is another autophagy-related protein like ATG7 that appears to be significant. The gene expression results appear in FIG. 3.

[5] = tested on: Human subcutaneous adipocytes; experiment: Lipolysis (glycerol release) in human subcutaneous adipocytes; type: cell-based; details: 1.0 μM isoproterenol, 2 hours
Protocol: as §1

[6] = healthy young or old adults; cited from earlier work
[7] = after HMB is fed; cited from earlier work

SMILES: CC(C)NCC(O)c1ccc(O)c(O)c1 (centres unmarked) [isoproterenol, reference compound]
- maximal lipolysis (OP9 adipocytes; higher concentrations of isoproterenol (1.0 vs 0.1 uM)): reduced maximal lipolysis

SMILES: CC(C)(O)CC(=O)O [HMB-FA]
- plasma levels of HMB compared with calcium HMB [1]: approximately double
- time to plasma levels compared with calcium HMB [1]: about one-quarter the time
- protein breakdown, change (skeletal muscle): −56%
- skeletal muscle protein synthesis, change (skeletal muscle): +70%

- Fold Change with HMB, phosphorylation of GSK-3a/b S21/S9 [2]: 1.255 Fold
- change in AKT1/2/3 at Threonine 308 [2]: no change
SMILES: CC(C)(O)CC(=O)O [HMB, β-hydroxy-β-methylbutyric acid]
- Fold Change with HMB, phosphorylation of CREB S133 [2]: 1.233 Fold
- Fold Change with HMB, phosphorylation of FGR Y412 [2]: 1.262 Fold
- Fold Change with HMB, phosphorylation of Fyn Y420 [2]: 1.400 Fold
- Fold Change with HMB, phosphorylation of Lyn Y397 [2]: 1.335 Fold
- Fold Change with HMB, phosphorylation of P53 S46 [2]: 0.834 Fold
- Fold Change with HMB, phosphorylation of RSK1/2/3 S380/S386/S377 [2]: 0.732 Fold
- Fold Change with HMB, phosphorylation of STAT5a/b Y694/Y699 [2]: 0.804 Fold
- Fold Change with HMB, phosphorylation of Yes Y426 [2]: 1.224 Fold
- Fold Change with HMB, phosphorylation of p53 S15 [2]: 0.621 Fold
- Effect on pathway: IL6 signaling (mRNA microarray) [3]: 2.53 fold
- enhancement of lipolysis in response to isoproterenol (OP9 adipocytes; 0.1 mM HMB 48 h pre-treatment, 0.1 uM isoproterenol): 2 fold
- increase of lipolysis over no HMB (OP9 adipocytes; 1 mM HMB 48 h pre-treatment, 0.1 uM isoproterenol): 4 fold
- enhancement of lipolysis response to isoproterenol (OP9 adipocytes; 6 mM HMB 48 h pre-treatment, 0.1 uM isoproterenol): 3 fold
- increase of basal lipolysis (OP9 adipocytes; HMB pretreatment, ADA followed by PIA, no isoproterenol): about 2 fold
- enhancement of isoproterenol-stimulated lipolysis (glycerol) (OP9 adipocytes; pre-treatment with HMB for 48 h, all HMB doses): 2-4 fold
- lipolysis (glycerol release, fold increase over control) (3T3-F442A adipocytes; 0.1 μM isoproterenol stimulation, 0.1 mM HMB): increased lipolysis
- lipolysis (glycerol release, fold increase over control) (3T3-F442A adipocytes; 0.1 μM isoproterenol stimulation, 6.0 mM HMB): decreased lipolysis
- lipolysis (glycerol release, fold increase over control) (3T3-F442A adipocytes; basal, 0.1 mM HMB): increased lipolysis above control
- lipolysis (glycerol release, fold increase over control) (3T3-F442A adipocytes; basal, 1 mM HMB): increased lipolysis above control
- lipolysis (glycerol release, fold increase over control) (3T3-F442A adipocytes; basal, 6.0 mM HMB): decreased lipolysis
- expression of ATGL [4]: increase
- lipolysis (glycerol release, fold increase over control) ([5]; 0.1 mM HMB): increased lipolysis above that of control
- lipolysis (glycerol release, fold increase over control) ([5]; 1 mM HMB): increased lipolysis above that of control
- side effects [6]: no side effects
- loss of HMB to urine [7]: 20-50%
